This is an account of results in patent EP1757588A1, “Polymorph of N-Piperidinyl-5-(4-chlorophenyl)-1-(2,4-dichlorophenyl)-4,5-dihydro-1H-pyrazole-3-carboxamide and its use as a cannabinoid receptor modulator” (LABORATORIOS DEL DR. ESTEVE, S.A., priority 2005, dated 2007).

Series [1] concerns Male NMRI mice. The series is described as follows: Mouse tetrad model (in-vivo bioassay for cannabinoid activity: hot plate, hypothermia, catalepsy, sedation). As to conditions: 5 mg/kg i.v. An excerpt:
II. In-vivo bioassay system for determination of cannabinoid activity
Substances with affinity for cannabinoid receptors are known to produce a wide range of pharmacological effects. It is also known that intravenous administration of a substance with affinity for cannabinoid receptors in mice produces analgesia , hypothermia, sedation and catalepsy. Individually, none of these effects can be considered as proof that a tested substance has affinity for cannabinoid-receptors, since all of these effects are common for various classes of centrally active agents. However, substances, which show all of these effects, i.e. substances that are active in this so-called tetrad model are considered to have affinity for the cannabinoid receptors. It has further been shown that cannabinoid receptor antagonists are higly effective in blocking the effects of a cannabinoid agonist in the mouse tetrad model.
The tetrad model is described, for example, in the publication of A. C. Howlett et al, International Union of Pharmacology XXVII. Classification of Cannabinoid Receptors, Pharmacol Rev 54, 161-202 , 2002 and David R. Compton et al., "In-vivo Characterization of a Specific Cannabinoid Receptor Antagonist (SR141716A) :Inhibition of Tetrahydrocannbinol- induced Responses and Apparent Agonist Activity", J. Pharmacol. Exp. Ther. 277 , 2, 586-594, 1996. […]
Before testing in the behavioral procedures given below, mice are acclimatized to the experimental setting. Pre-Treatment control values are determined for analgesia hot plate latency (in seconds), rectal temperature, sedation and catalepsy.
In order to determine the agonistic activty of the substance to be tested, the mice are injected intravenously with the substance to be tested or the vehicle alone. 15 minutes after injection, latency in hot plate analgesia is measured.
Rectal temperature, sedation and catalepsy are measured 20 minutes after injection.
In order to determine the antagonistic activity the identical procedure is used as for the determination of the agonistic effects, but with the difference that the substance to be evaluated for its antagonistic activity is injectected 5 minutes before the intravenous injection of 1.25 mg/kg Win-55,212 a known cannabinoid-receptor agonist.
The hot plate analgesia is determined according to the method described in Woolfe D. et al. "The evaluation of analgesic action of pethidine hydrochloride (Demerol)", J. Pharmacol. Exp. Ther. 80, 300-307,1944.
The mice are placed on a hot plate (Harvard Analgesimeter) at 55 ± 0.5 °C until they show a painful sensation by licking their paws or jumping and the time for these sensations to occur is recorded. This reading is considered the basal value (B). […]
The degree of analgesia is calculated from the formula : […]

Series [2] concerns the target Herg channel (Homo sapiens, UniProt Q12809). The series is described as follows: Herg channel affinity. The following applies: general statement, no method or data given. Format: binding.

Chain of Herg channel (Q12809 whole entry): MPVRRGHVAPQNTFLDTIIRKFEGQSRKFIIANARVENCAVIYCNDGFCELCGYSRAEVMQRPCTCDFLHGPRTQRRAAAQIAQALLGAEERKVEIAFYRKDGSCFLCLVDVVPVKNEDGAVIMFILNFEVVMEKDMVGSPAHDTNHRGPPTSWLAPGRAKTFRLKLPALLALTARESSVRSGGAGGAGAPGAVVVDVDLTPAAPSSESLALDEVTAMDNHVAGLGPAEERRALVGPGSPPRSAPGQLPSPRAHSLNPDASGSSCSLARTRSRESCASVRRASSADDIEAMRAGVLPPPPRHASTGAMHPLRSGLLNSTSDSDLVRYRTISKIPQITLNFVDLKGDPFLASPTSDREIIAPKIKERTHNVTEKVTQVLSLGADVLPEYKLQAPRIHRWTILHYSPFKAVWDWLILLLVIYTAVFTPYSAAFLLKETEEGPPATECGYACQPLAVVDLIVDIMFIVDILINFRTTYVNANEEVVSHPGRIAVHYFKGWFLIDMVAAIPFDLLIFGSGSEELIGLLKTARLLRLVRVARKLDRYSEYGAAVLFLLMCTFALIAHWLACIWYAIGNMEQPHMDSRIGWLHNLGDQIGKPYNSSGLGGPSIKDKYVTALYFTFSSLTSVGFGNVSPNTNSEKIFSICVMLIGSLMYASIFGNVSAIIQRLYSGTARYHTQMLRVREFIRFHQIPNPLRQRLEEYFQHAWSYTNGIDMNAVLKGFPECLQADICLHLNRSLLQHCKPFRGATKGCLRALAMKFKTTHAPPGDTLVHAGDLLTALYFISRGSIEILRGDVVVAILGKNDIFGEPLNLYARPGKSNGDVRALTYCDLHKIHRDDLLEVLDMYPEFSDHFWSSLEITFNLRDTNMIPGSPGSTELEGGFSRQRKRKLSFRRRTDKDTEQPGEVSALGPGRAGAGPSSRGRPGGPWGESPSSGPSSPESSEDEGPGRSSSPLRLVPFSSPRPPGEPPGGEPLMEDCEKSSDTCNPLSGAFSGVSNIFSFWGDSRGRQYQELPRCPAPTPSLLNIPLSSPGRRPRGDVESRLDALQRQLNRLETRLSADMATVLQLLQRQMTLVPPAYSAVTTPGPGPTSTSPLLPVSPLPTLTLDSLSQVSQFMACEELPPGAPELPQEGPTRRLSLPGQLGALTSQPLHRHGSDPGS

Turning to `O=C(NN1CCCCC1)C1=NN(c2ccc(Cl)cc2Cl)C(c2ccc(Cl)cc2)C1` (centres unmarked) [Example 1, N-piperidinyl-5-(4-chlorophenyl)-1-(2,4-dichlorophenyl)-4,5-dihydro-1H-pyrazole-3-carboxamide], in series [1], the “Agonistic effect A: Hot-Plate test” value stood at 0, the “Agonistic effect B: Hypothermia” value was 0, the “Agonistic effect C: Catalepsy” value is reported as 0 and the “Agonistic effect D: Sedation” value is 0.
In the case of `O=C(NN1CCCCC1)C1=NN(c2ccc(Cl)cc2Cl)C(c2ccc(Cl)cc2)C1` (stereo not drawn) [β-Polymorph, β-Polymorph of N-piperidinyl-5-(4-chlorophenyl)-1-(2,4-dichlorophenyl)-4,5-dihydro-1H-pyrazole-3-carboxamide], in series [2], the Herg channel affinity result is “relatively weak”.
